# Measurements published in patent US12691070B2, “Cationic lipids and preparation method thereof” (RiboX Therapeutics HK Limited, priority 2023, dated 2026).
# Legend:
# [1] = test system: RAW 264.7 cells; assay: In vitro toxicity (CellTiter-Glo cell viability), RAW 264.7; format: cell-based; settings: cirRNA (SEQ ID NO: 1) LNPs; RAW 264.7 cells;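 note: percent of untreated cells luminescence signal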
# Summary of the method: (§1)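 Cells were transfected with RNA-LNPs at 1 μg/mL and, 72 hours later, viability was measured by CellTiter-Glo luminescence. Values are cell viability calculated from the luminescence signal.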
# [2] = test system: Hep G2 cells; assay: In vitro toxicity (CellTiter-Glo cell viability), Hep G2; format: cell-based; settings: cirRNA (SEQ ID NO: 1) LNPs; Hep G2 cells;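 note: percent of untreated cells luminescence signal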
# Summary of the method: as §1
# [3] = LNP size and polydispersity index (PDI) by dynamic light scattering; format: physicochemical; settings: LNP with cirRNA (SEQ ID NO: 1); for Size: in nm (unit assumed)
# Summary of the method: (§2)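 LNPs of ionizable lipid/DSPC/cholesterol/DMG-PEG 2000 (50:10:38.5:1.5) made by microfluidic mixing of luciferase circRNA or mRNA in pH 4.5 acetate with lipids in ethanol (3:1, 12 ml/min), ionizable lipid:nucleotide 15 or 6, then dialyzed against PBS. Size, PDI (DLS) and zeta potential on Zetasizer; encapsulation by Ribogreen ± Triton X-100.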
# [4] = test system: BALB/C mice; assay: In vivo expression, whole-body luminescence (IVIS); settings: cirRNA (SEQ ID NO: 1) LNPs, BALB/C mice
# Experimental: 6-8 week old, female BALB/C mice were injected with 0.05 mg*kg-1 of RNA-LNPs encoding for firefly-luciferase by intravenous injection. At 6 hours post injection, animals were intraperitoneally injected with 15 mg/ml of Luciferin substrate and whole-body luminescence was determined by a bioluminescent in vivo imaging system (IVIS).
# [5] = LNP zeta potential (Zetasizer); format: physicochemical; settings: LNP with cirRNA (SEQ ID NO: 1)
# Summary of the method: as §2
# [6] = test system: RAW 264.7 cells; assay: In vitro expression of firefly-luciferase, RAW 264.7; format: cell-based; settings: cirRNA (SEQ ID NO: 1) LNPs; firefly-luciferase luminescence; RAW 264.7 cells
# Summary of the method: (§3)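 Luminescence from cell lysates reports expression: luciferase activity was measured 72 h after transfection with 100 ng/mL RNA-LNPs encoding firefly luciferase.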
# [7] = test system: Hep G2 cells; assay: In vitro expression of firefly-luciferase, Hep G2; format: cell-based; settings: cirRNA (SEQ ID NO: 1) LNPs; firefly-luciferase luminescence; Hep G2 cells
# Summary of the method: as §3
# [8] = RNA encapsulation efficacy by Quant-IT Ribogreen kit; format: physicochemical; settings: LNP with cirRNA (SEQ ID NO: 1)
# Summary of the method: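 Ribogreen fluorescence with and without Triton X-100 gave encapsulation as 100% − (intact/lysed) signal; DLS size, PDI and zeta potential measured on a Zetasizer. Particles: 50:10:38.5:1.5 lipid mix, luciferase circRNA or mRNA, lipid:nucleotide 15 or 6, microfluidic assembly at pH 4.5, PBS-dialyzed.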
PDI [3],Size [3],Zeta (mV) [5],Encapsulation Efficiency % [8],SMILES,In vitro Viability RAW [1],In vitro Viability HepG2 [2],In vivo Expression (Whole Body) [4],In vitro Expression RAW [6],In vitro Expression HepG2 [7]
0.1534,61.85,16.19 mV,95%,CCCCCCCCCC(=O)OCCCCCCCN(CCCCCCCOC(=O)CCCCCCCCC)CCOC(=O)NCCN1CCN(C)CC1 [Lipid 178],92%,99%,1.31E+06,1.31E+03,6.17E+04
0.2327,79.79,12.32 mV,91%,CCCCC/C=C\CCOC(=O)CCCCCN(CCCCCCCCOC(=O)C(CCCCCC)CCCCCCCC)CCOC(=O)NCCN1CCCC1 (stereo not drawn) [Lipid 191],4%,92%,1.02E+07,1.22E+03,4.43E+04
0.1344,76.52,−7.77 mV,92%,CCCCC/C=C\CCOC(=O)CCCCCN(CCCCCCCCOC(=O)C(CCCCCC)CCCCCCCC)CCOC(=O)NCCN1CCCCC1 (stereo not drawn) [Lipid 192],86%,94%,8.52E+07,8.42E+03,4.18E+04
0.3634,66.71,15.29 mV,94%,CCCCCCCCCC(=O)OCCCCCCCN(CCCCCCCCOC(=O)C(CCCCCC)CCCCCCCC)CCOC(=O)NCCCN(C)C (stereo not drawn) [Lipid 193],3%,94%,1.00E+06,1.70E+03,5.28E+05
0.2199,64.1,−3.471 mV,94%,CCCCCCCCCC(=O)OCCCCCCCN(CCCCCCCCOC(=O)C(CCCCCC)CCCCCCCC)CCOC(=O)NCc1ncc[nH]1 (stereo not drawn) [Lipid 198],90%,104%,9.90E+06,8.39E+04,2.19E+04
0.436,97.91,13.62 mV,94%,CCCCCCCCCC(=O)OCCCCCCCN(CCCCCCCCOC(=O)C(CCCCCC)CCCCCCCC)CCOC(=O)NCCCN(CC)CC (stereo not drawn) [Lipid 199],0%,87%,3.44E+05,1.29E+03,3.74E+05
0.2967,82.06,7.27 mV,95%,CCCCCCCCCC(=O)OCCCCCCCN(CCCCCCCCOC(=O)C(CCCCCC)CCCCCCCC)CCOC(=O)NCCN1CCN(C)CC1 (stereo not drawn) [Lipid 200],0%,103%,6.79E+05,4.45E+04,4.46E+05
0.1932,60.75,16.36 mV,93%,CCCCCCCCCC(=O)OCCCCCCCCN(CCCCCCCCOC(=O)CCCCCCCCC)CCOC(=O)NCCN(C)C [Lipid 202],92%,94%,2.33E+05,3.35E+02,2.49E+05
0.08783,98.65,−0.09389 mV,73%,CCCCCCCCCC(=O)OCCCCCCCCN(CCCCCCCCOC(=O)CCCCCCCCC)CCOC(=O)NCc1ncc[nH]1 [Lipid 203],91%,103%,6.84E+06,7.82E+04,1.12E+04
0.1521,61.16,18.81 mV,94%,CCCCCCCCCC(=O)OCCCCCCCCN(CCCCCCCCOC(=O)CCCCCCCCC)CCOC(=O)NCCN1CCN(C)CC1 [Lipid 205],95%,94%,6.61E+05,7.09E+03,5.81E+05
0.1886,86.68,13.53 mV,93%,CCCCCCCCCC(=O)OCCCCCCCCN(CCCCCCCCOC(=O)CCCCCCCCC)CCOC(=O)NCCN1CCCC1 [Lipid 209],95%,96%,6.62E+05,1.08E+02,3.81E+04

# Second part, the molecule before the results:
SMILES,PDI [3],Size [3],Zeta (mV) [5],Encapsulation Efficiency % [8],In vitro Viability RAW [1],In vitro Viability HepG2 [2],In vivo Expression (Whole Body) [4],In vitro Expression RAW [6],In vitro Expression HepG2 [7]
CCCCCCCCCCC(CCCCCCCC)COC(=O)CCCCCN(CCCCCC(=O)OCC(CCCCCCCC)CCCCCCCCCC)CCOC(=O)NCCCN(CC)CC (stereo not drawn) [Lipid 172],0.2521,67.53,1.36 mV,83%,90%,41%,2.14E+07,5.83E+05,1.12E+07
CCCCCCCCCCC(CCCCCCCC)COC(=O)CCCCCN(CCCCCC(=O)OCC(CCCCCCCC)CCCCCCCCCC)CCOC(=O)NCCN1CCN(C)CC1 (stereo not drawn) [Lipid 173],0.3423,73.65,−0.5735 mV,82%,90%,57%,3.45E+07,9.48E+05,3.32E+07
CCCCCCCCCCC(CCCCCCCC)COC(=O)CCCCCN(CCCCCC(=O)OCC(CCCCCCCC)CCCCCCCCCC)CCOC(=O)NCCN1CCOCC1 (stereo not drawn) [Lipid 174],0.0911,57.29,−4.35 mV,89%,92%,89%,5.15E+07,1.30E+04,1.56E+05
CCCCC/C=C\CCOC(=O)CCCCCN(CCCCCCCCOC(=O)C(CCCCCC)CCCCCCCC)CCOC(=O)NCc1ncc[nH]1 (stereo not drawn) [Lipid 185],0.102,69.89,−1.137 mV,88%,85%,90%,1.22E+08,5.29E+04,9.12E+03
CCCCC/C=C\CCOC(=O)CCCCCN(CCCCCCCCOC(=O)C(CCCCCC)CCCCCCCC)CCOC(=O)NCCCN(CC)CC (stereo not drawn) [Lipid 186],0.4618,122.7,14.31 mV,90%,0%,88%,2.96E+06,2.82E+02,1.51E+05
CCCCC/C=C\CCOC(=O)CCCCCN(CCCCCCCCOC(=O)C(CCCCCC)CCCCCCCC)CCOC(=O)NCCN1CCN(C)CC1 (stereo not drawn) [Lipid 187],0.277,65.71,8.983 mV,92%,0%,93%,2.29E+06,7.47E+04,3.27E+05
CCCCC/C=C\CCOC(=O)CCCCCN(CCCCCCCCOC(=O)C(CCCCCC)CCCCCCCC)CCOC(=O)NCCN1CCOCC1 (stereo not drawn) [Lipid 188],0.07877,73.74,−9.419 mV,88%,87%,96%,2.17E+07,2.82E+03,1.12E+04
CCCCC/C=C\CCOC(=O)CCCCCN(CCCCCCCCOC(=O)C(CCCCCC)CCCCCCCC)CCOC(=O)NCCN(C)C (stereo not drawn) [Lipid 189],0.4058,84.04,18.88 mV,95%,1%,89%,1.79E+06,2.71E+02,9.85E+04
